# According to patent US20180235221A1 (priority 2015, published 2018):
# What was measured:
# [1] = tested on: Qol resistant Septoria tritici isolate (3573); test: Microtest, activity against causal agent of leaf blotch Septoria tritici; assay type: cell-based; conditions: single active compound, MTP, 405 nm, 7 days after inoculation
# [2] = tested on: Qol resistant Alternaria solani isolate (141); test: Microtest, activity against early blight pathogen Alternaria solani; assay type: cell-based; conditions: single active compound, MTP, 405 nm, 7 days after inoculation
Structure (SMILES),Observed efficacy ([1]; 0.016 ppm) [%],Observed efficacy ([1]; 0.063 ppm) [%],Observed efficacy ([1]; 0.25 ppm) [%],Observed efficacy ([2]; 0.25 ppm) [%],Observed efficacy ([2]; 0.063 ppm) [%],Observed efficacy ([2]; 0.016 ppm) [%]
"CNC(=O)C(=N/OC)/C(C)=C\COc1ccn(-c2ccc(Cl)cc2)n1 [Compound I-1, (Z,2E)-5-[1-(4-chlorophenyl)pyrazol-3-yl]oxy-2-methoxyimino-N,3-dimethyl-pent-3-enamide]",10,21,49,0,,
"CNC(=O)C(=N/OC)/C(C)=C\COc1ccn(-c2ccc(Cl)cc2Cl)n1 [Compound I-3, (Z,2E)-5-[1-(2,4-dichlorophenyl)pyrazol-3-yl]oxy-2-methoxyimino-N,3-dimethyl-pent-3-en-amide]",10,32,,0,0,
"Cn1nnn(-c2cccc(Cl)c2COc2ccn(-c3ccc(Cl)cc3)n2)c1=O [II-1, 1-[3-chloro-2[[1-(4-chlorophenyl)-1H-pyrazol-3-yl]oxymethyl]phenyl]-4-methyl-tetrazol-5-one]",,,23,,0,0
"Cn1nnn(-c2cccc(Br)c2COc2ccn(-c3ccc(Cl)cc3)n2)c1=O [II-2, 1-[3-bromo-2-[[1-(4-chlorophenyl)pyrazol-3-yl]oxymethyl]phenyl]-4-methyl-tetrazol-5-one]",,,,0,0,0
"Cc1cccc(-n2nnn(C)c2=O)c1COc1ccn(-c2ccc(Cl)cc2)n1 [II-3, 1-[2-[[1-(4-chlorophenyl)pyrazol-3-yl]oxymethyl]-3-methyl-phenyl]-4-methyl-tetrazol-5-one]",,,17,,,0
"Cn1nnn(-c2cccc(F)c2COc2ccn(-c3ccc(Cl)cc3)n2)c1=O [II-4, 1-[2-[[1-(4-chlorophenyl)pyrazol-3-yl]oxymethyl]-3-fluoro-phenyl]-4-methyl-tetrazol-5-one]",,,,,0,0
"Cn1nnn(-c2cccc(F)c2COc2ccn(-c3ccc(Cl)cc3Cl)n2)c1=O [II-5, 1-[2-[[1-(2,4-dichlorophenyl)pyrazol-3-yl]oxymethyl]-3-fluoro-phenyl]-4-methyl-tetrazol-5-one]",,,,,,6
"CC(=NOCc1c(C)cccc1-n1nnn(C)c1=O)c1cccc(C(F)(F)F)c1 [II-11, -methyl-4-[3-methyl-2-[[1-[3-(trifluoromethyl)-phenyl]-ethylideneamino]oxymethyl]phenyl]tetrazol-5-one]",,,,15,0,0
